Reference: patent US7030145B2, “Pyridinyl derivatives for the treatment of depression” (Bristol-Myers Squibb Company, priority 2003, dated 2006)

Molecular target: T1, cloned human CRF-R1 receptors (Homo sapiens, UniProt P34998)
T1 construct: the coding region was amplifies by PCR from start to stop codons; expressed in transfected cells; membranes
T1 sequence (P34998 24-415): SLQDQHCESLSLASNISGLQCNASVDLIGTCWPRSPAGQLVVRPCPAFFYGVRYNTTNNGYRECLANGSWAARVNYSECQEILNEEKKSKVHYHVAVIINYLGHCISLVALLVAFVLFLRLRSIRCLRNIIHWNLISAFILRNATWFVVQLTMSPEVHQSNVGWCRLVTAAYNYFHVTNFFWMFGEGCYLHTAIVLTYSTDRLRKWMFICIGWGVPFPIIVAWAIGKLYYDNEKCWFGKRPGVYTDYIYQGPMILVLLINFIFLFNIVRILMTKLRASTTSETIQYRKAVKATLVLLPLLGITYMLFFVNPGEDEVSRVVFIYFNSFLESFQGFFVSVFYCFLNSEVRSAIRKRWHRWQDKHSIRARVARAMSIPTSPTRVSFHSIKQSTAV
Test: CRF-R1 receptor binding assay (inhibition of 125I-ovine-CRF binding to cell membranes)
Conditions: membranes of 293EBNA cells transfected with hCRFR1, class d = reported as percent inhibition at 10 μM, figures not given, read-out: activity (Ki class in the CRF assays)
Description: The following is a description of the isolation of cell membranes containing cloned human CRF-R1 receptors for use in a standard binding assay as well as a description of the assay itself.
Messenger RNA was isolated from human hippocampus. […]. The mRNA was reverse transcribed using oligo (dt) 12–18 and the coding region was amplifies by PCR from start to stop codons. The resulting PCR fragment was cloned into the EcoRV site of pGEMV, from whence the insert was reclaimed using XhoI+XbaI and cloned into the XhoI+XbaI sites of vector pm3 as (which contains a CMV promoter, the SV′t′ splice and early poly A signals, an Eptein-Barr viral origin of replication, and a hygromycin selectable marker). The resulting expression vector, called phchCRFR was transfected in 293EBNA cells and cells retaining the episome were selected in the presence of […] hygromycin. Cells surviving 4 weeks of selection in hygromycin were pooled, adapted to growth in suspension and used to generate membranes for the binding assay described below. Individual aliquots containing approximately 1×10^8 of the suspended cells were then centrifuged to form a pellet and frozen. For the binding assay a frozen pellet described above containing 293EBNA cells transfected with hCRFR1 receptors is homogenized in 10 mL of ice cold tissue buffer (50 mM HEPES buffer pH 7.0, containing 10 MM MgCl2, 2 mM EGTA, 1 μg/mL apotinin, 1 μg/mL leupeptin and 1 μg/mL pepstatin). The homoginate is centrifuged at 40,000×g for 12 min and the resulting pellet rehomogenized in 10 mL of tissue buffer. After another centrifugation at 40,000×g for 12 min, the pellet is resuspended to a protein concentration of 360 μg/mL to be used in the assay.
Binding assays are performed in 96 well plates; each well having a 300 μL capacity. To each well is added 50 μL of test drug dilutions (final concentration of drugs range from 10^−10–10^−5 M), 100 μL of ^125I-ovine-CRF (^125I-o-CRF) (final concentration 150 pM) and 150 μL of the cell homoginate described above. Plates are then allowed to incubate at room temperature for 2 hours before filtering the incubate over GF/F filters (presoaked with 0.3% polyethyleneimine) using an appropriate cell harvester. Filters are rinsed 2 times with ice cold assay buffer before removing individual filters and assessing them for radioactivity on a gamma counter.
Curves of the inhibition of ^125I-o-CRF binding to cell membranes at various dilutions of test drug are analyzed by the iterative curve fitting program LIGAND [P. J. Munson and D. Rodbard, Anal. Biochem., 107:220 (1980), which provides Ki values for inhibition which are then used to assess biological activity. […]
Messenger RNA was isolated from human hippocampus. The mRNA was isolated from human hippocampus. The mRNA was reverse transcribed using oligo (dt) 12–18 and the coding region was amplifies by PCR from start to stop codons. The resulting PCR fragment was cloned into the EcoRV site of pGEMV, from whence the insert was reclaimed using XhoI+XbaI and cloned into the XhoI+XbaI sites of vector pm3 as (which contains a CMV promoter, the SV′t′ splice and early poly A signals, an Eptein-Barr viral origin of replication, and a hygromycin selectable marker). The resulting expression vector, called phchCRFR was transfected in 293EBNA cells and cells retaining the episome were selected in the presence of […] hygromycin. Cells surviving 4 weeks of selection in hygromycin were pooled, adapted to growth in suspension and used to generate membranes for the binding assay described below. […]
A frozen pellet described above containing 293EBNA cells transfected with hCRFR1 receptors or the rat frontal cortex tissue dissected from frozen rat brains was prepared as the source of membranes expressing CRF1 receptors used in binding assays. […]

`C=CCOc1ccc(S(=O)(=O)c2ccc(C)nc2Nc2c(C)cc(C)cc2C)cc1` [Example 13, [3-(4-Allyloxybenzenesulfonyl)-6-methylpyridin-2-yl]-(2,4,6-trimethylphenyl)-amine] gave a Ki of 0.1 to 0.5 µM.

With `Cc1cc(C)c(Nc2nc(C)ccc2S(=O)(=O)c2ccc(C)c(C)c2)c(C)c1` [Example 38, [3-(3,4-Dimethylbenzenesulfonyl)-6-methylpyridin-2-yl]-(2,4,6-trimethylphenyl)-amine] the Ki was 0.1 to 0.5 µM.

`COc1ccc(S(=O)(=O)c2ccc(C)nc2Nc2c(C)cc(C)cc2C)cc1OC` [Example 39, [3-(3,4-Dimethoxybenzenesulfonyl)-6-methylpyridin-2-yl]-(2,4,6-trimethylphenyl)-amine] showed a Ki of 0.5 to 5 µM.

Work on `Cc1cc(C)c(Nc2nc(C)ccc2S(=O)(=O)c2ccc(Cl)c(Cl)c2)c(C)c1` [Example 40, [3-(3,4-Dichlorobenzenesulfonyl)-6-methylpyridin-2-yl]-(2,4,6-trimethylphenyl)-amine] yielded a Ki of 0.1 to 0.5 µM.

In the case of `Cc1ccc(S(=O)(=O)c2ccc(C)nc2Nc2c(C)cc(C)cc2C)cc1` [Example 41, [6-Methyl-3-(toluene-4-sulfonyl)-pyridin-2-yl]-(2,4,6-trimethylphenyl)-amine], the Ki is reported as 0.1 to 0.5 µM.

Work on `CCc1ccc(S(=O)(=O)c2ccc(C)nc2Nc2c(C)cc(C)cc2C)cc1` [Example 42, [3-(4-Ethylbenzenesulfonyl)-6-methylpyridin-2-yl]-(2,4,6-trimethylphenyl)-amine] yielded a Ki of no more than 0.1 µM.

`Cc1cc(C)c(Nc2nc(C)ccc2S(=O)(=O)c2ccc(C(C)C)cc2)c(C)c1` [Example 43, [3-(4-Isopropylbenzenesulfonyl)-6-methylpyridin-2-yl]-(2,4,6-trimethylphenyl)-amine] gave a Ki of 0.1 to 0.5 µM.

In the case of `Cc1cc(C)c(Nc2nc(C)ccc2S(=O)(=O)c2ccc(OC(F)(F)F)cc2)c(C)c1` [Example 44, [6-Methyl-3-(4-trifluoromethoxybenzenesulfonyl)-pyridin-2-yl]-(2,4,6-trimethylphenyl)-amine], the Ki is reported as 0.1 to 0.5 µM.

`Cc1cc(C)c(Nc2nc(C)ccc2S(=O)(=O)c2ccc(F)cc2)c(C)c1` [Example 45, [3-(4-Fluorobenzenesulfonyl)-6-methylpyridin-2-yl]-(2,4,6-trimethylphenyl)-amine] showed a Ki of 0.1 to 0.5 µM.

`C#Cc1ccc(S(=O)(=O)c2ccc(C)nc2Nc2c(C)cc(C)cc2C)cc1` [Example 47, [3-(4-Ethynylbenzenesulfonyl)-6-methylpyridin-2-yl]-(2,4,6-trimethylphenyl)-amine] showed a Ki of no more than 0.1 µM.

In the case of `Cc1cc(C)c(Nc2nc(C)ccc2S(=O)(=O)c2ccc(-c3ccccc3)cc2)c(C)c1` [Example 48, [3-(Biphenyl-4-sulfonyl)-6-methylpyridin-2-yl]-(2,4,6-trimethylphenyl)-amine], the Ki is reported as no more than 0.1 µM.

`COc1ccccc1-c1ccc(S(=O)(=O)c2ccc(C)nc2Nc2c(C)cc(C)cc2C)cc1` [Example 49, [3-(2′-Methoxybiphenyl-4-sulfonyl)-6-methylpyridin-2-yl]-(2,4,6-trimethylphenyl)-amine] gave a Ki of no more than 0.1 µM.

`Cc1cc(C)c(Nc2nc(C)ccc2S(=O)(=O)c2ccc(CO)cc2)c(C)c1` [Example 50, {4-[6-Methyl-2-(2,4,6-trimethylphenylamino)-pyridine-3-sulfonyl]-phenyl}-methanol] gave a Ki of 0.1 to 0.5 µM.

Work on `Cc1cc(C)c(NCc2ccc(S(=O)(=O)c3ccc(C)nc3Nc3c(C)cc(C)cc3C)cc2)c(C)c1` [Example 51, (6-Methyl-3-{4-[(2,4,6-trimethylphenylamino)-methyl]-benzenesulfonyl}-pyridin-2-yl)-(2,4,6-trimethylphenyl)-amine] yielded a Ki of 0.5 to 5 µM.

Compound `Cc1cc(C)c(Nc2nc(C)ccc2S(=O)(=O)c2ccc(C=O)cc2)c(C)c1` [Example 52, 4-[6-Methyl-2-(2,4,6-trimethylphenylamino)-pyridine-3-sulfonyl]-benzaldehyde] has a Ki of 0.5 to 5 µM.

Compound `Cc1cc(C)c(Nc2nc(C)ccc2S(=O)(=O)c2ccc(C(O)c3ccccc3)cc2)c(C)c1` (centres unmarked) [Example 53, {4-[6-Methyl-2-(2,4,6-trimethylphenylamino)-pyridine-3-sulfonyl]-phenyl}-phenyl-methanol] has a Ki of 0.1 to 0.5 µM.

Work on `C=CCOc1cccc(S(=O)(=O)c2ccc(C)nc2Nc2c(C)cc(C)cc2C)c1` [Example 59, [3-(3-Allyloxybenzenesulfonyl)-6-methylpyridin-2-yl]-(2,4,6-trimethylphenyl)-amine] yielded a Ki of 0.1 to 0.5 µM.

Work on `Cc1cc(C)c(Nc2nc(C)ccc2S(=O)(=O)c2cccc(OCc3ccccc3)c2)c(C)c1` [Example 60, [3-(3-Benzyloxybenzenesulfonyl)-6-methylpyridin-2-yl]-(2,4,6-trimethylphenyl)-amine] yielded a Ki of 0.1 to 0.5 µM.

Compound `Cc1cc(C)c(Nc2nc(C)ccc2S(=O)(=O)c2cccc(OCc3ccc(F)cc3)c2)c(C)c1` [Example 61, {3-[3-(4-Fluorobenzyloxy)-benzenesulfonyl]-6-methylpyridin-2-yl}-(2,4,6-trimethylphenyl)-amine] has a Ki of 0.1 to 0.5 µM.

With `COc1cccc(COc2cccc(S(=O)(=O)c3ccc(C)nc3Nc3c(C)cc(C)cc3C)c2)c1` [Example 62, {3-[3-(3-Methoxybenzyloxy)-benzenesulfonyl]-6-methylpyridin-2-yl}-(2,4,6-trimethylphenyl)-amine] the Ki was 0.1 to 0.5 µM.

Work on `Cc1cc(C)c(Nc2nc(C)ccc2S(=O)(=O)c2cccc(OCc3ccc(Cl)nc3)c2)c(C)c1` [Example 64, {3-[3-(6-Chloropyridin-3-ylmethoxy)-benzenesulfonyl]-6-methylpyridin-2-yl}-(2,4,6-trimethylphenyl)-amine] yielded a Ki of 0.1 to 0.5 µM.

For `Cc1cc(C)c(Nc2nc(C)ccc2S(=O)(=O)c2cccc(OCc3cc(Cl)nc(Cl)c3)c2)c(C)c1` [Example 65, {3-[3-(2,6-Dichloropyridin-4-ylmethoxy)-benzenesulfonyl]-6-methylpyridin-2-yl}-(2,4,6-trimethylphenyl)-amine], the Ki was 0.1 to 0.5 µM.

In the case of `CCc1ccc(S(=O)(=O)c2ccc(C)nc2Nc2ccc(C)cc2C)cc1` [Example 66, (2,4-Dimethylphenyl)-[3-(4-ethylbenzenesulfonyl)-6-methylpyridin-2-yl]-amine], the Ki is reported as 0.1 to 0.5 µM.

`CCc1ccc(S(=O)(=O)c2ccc(C)nc2Nc2ccc(OC)cc2C)cc1` [Example 67, [3-(4-Ethylbenzenesulfonyl)-6-methylpyridin-2-yl]-(4-methoxy-2-methylphenyl)-amine] was tested, and the Ki was no more than 0.1 µM.

Work on `CCc1ccc(S(=O)(=O)c2ccc(C)nc2Nc2ccc(OC)cc2OC)cc1` [Example 68, (2,4-Dimethoxyphenyl)-[3-(4-ethylbenzenesulfonyl)-6-methylpyridin-2-yl]-amine] yielded a Ki of 0.1 to 0.5 µM.

Work on `CCc1ccc(S(=O)(=O)c2ccc(C)nc2Nc2cc(C)c(C)cc2C)cc1` [Example 70, [3-(4-Ethylbenzenesulfonyl)-6-methylpyridin-2-yl]-(2,4,5-trimethylphenyl)-amine] yielded a Ki of no more than 0.1 µM.
